According to patent publication US20220356186A1, “PERK INHIBITING PYRROLOPYRIMIDINE COMPOUNDS” (HiberCell, Inc., priority 2019, published 2022):
Read-outs that look alike come from different tables or passages of the source.

Columns and labels:
[1] = molecular target: T1, EIF2AK3 (PERK) catalytic domain (amino acids 536-1116) (Homo sapiens, UniProt Q9NZJ5); assay: PERK in vitro activity assay (isolated), TR-FRET kinase assay; assay type: biochemical; settings: isolated PERK enzyme, 1.5 μM ATP; read-out: Biochemical IC50
T1 construct: EIF2AK3 (PERK) catalytic domain (amino acids 536-1116)
T1 sequence (Q9NZJ5 536-1116): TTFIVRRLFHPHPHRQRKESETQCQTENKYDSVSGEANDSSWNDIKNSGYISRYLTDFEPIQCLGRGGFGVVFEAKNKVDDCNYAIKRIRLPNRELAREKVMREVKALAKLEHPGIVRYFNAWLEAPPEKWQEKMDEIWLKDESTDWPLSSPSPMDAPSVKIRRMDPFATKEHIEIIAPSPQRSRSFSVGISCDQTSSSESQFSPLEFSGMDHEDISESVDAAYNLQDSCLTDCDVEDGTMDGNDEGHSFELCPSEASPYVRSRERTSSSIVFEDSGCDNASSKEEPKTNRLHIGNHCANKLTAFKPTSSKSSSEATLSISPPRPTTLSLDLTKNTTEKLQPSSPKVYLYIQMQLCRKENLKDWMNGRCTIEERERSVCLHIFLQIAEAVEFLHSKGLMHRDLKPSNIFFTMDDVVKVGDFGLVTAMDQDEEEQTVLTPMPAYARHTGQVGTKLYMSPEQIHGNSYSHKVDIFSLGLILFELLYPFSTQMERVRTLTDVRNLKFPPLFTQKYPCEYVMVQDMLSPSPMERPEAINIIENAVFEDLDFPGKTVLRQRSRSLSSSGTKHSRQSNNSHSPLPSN
Method in brief: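 Human PERK catalytic domain (aa 536-1116) phosphorylating 100-200 nM GFP-eIF2a in 50 mM HEPES pH 7.5, 10 mM MgCl2, 1 mM EGTA, 0.01% Brij-35; enzyme-started, 45 min at room temperature. Stopped with 10 mM EDTA, 2 nM Tb-anti-phospho-eIF2a added for 90 min; IC50 from TR-FRET ratios by 4-parameter logistic fit.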

[2] = tested on: GFP-eIF2α in HEK293 cells; assay: PERK cellular assay, TR-FRET in HEK293-EGFP-eIF2a cells after tunicamycin-induced ER stress; assay type: cell-based; settings: HEK293-EGFP-eIF2a cells, tunicamycin 2 hours, read-out: Cellular eIF2α IC50
Method in brief: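 HEK293 cells stably expressing GFP-eIF2α, plated 5000 cells/well overnight, pretreated with inhibitors 30 min at 37 °C, then ER stress induced with tunicamycin […] for 2 h.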

Row | SMILES | IC50 [1] [µM] | IC50 [2] [µM] | IC50 ([2]; Homo sapiens, HEK293, 2 h) [µM]
1 | Cc1nc(N)c2c(-c3ccc(NC(=O)C(O)c4cccc5cnn(C)c45)cc3C)cn(C)c2n1 (single isomer, unassigned) [Example 65, N-(4-(4-amino-2,7-dimethyl-7H-pyrrolo[2,3-d]pyrimidin-5-yl)-3-methylphenyl)-2-hydroxy-2-(1-methyl-1H-indazol-7-yl)acetamide] | 0.251 to 0.5 | 3 to 4 | 
2 | COc1cccc(CC(=O)Nc2ccc(-c3cn(C)c4ncnc(N)c34)c(C)c2)c1 [Example 139, N-(4-(4-amino-7-methyl-7H-pyrrolo[2,3-d]pyrimidin-5-yl)-3-methylphenyl)-2-(3-methoxyphenyl)acetamide] | 0.026 to 0.05 |  | 0.251 to 0.5
3 | COc1cc(NC(=O)C(O)c2cccc(F)c2)ccc1-c1cn(C)c2ncnc(N)c12 (stereo not shown) [Example 103, N-(4-(4-amino-7-methyl-7H-pyrrolo[2,3-d]pyrimidin-5-yl)-3-methoxyphenyl)-2-(3-fluorophenyl)-2-hydroxyacetamide] | 0.101 to 0.25 | 2 to 3 | 
4 | Cc1nc(N)c2c(-c3ccc(NC(=O)C(O)c4cccc(C(F)(F)F)c4)cc3Cl)cn(C)c2n1 (stereo not shown) [Example 102, N-(4-(4-amino-2,7-dimethyl-7H-pyrrolo[2,3-d]pyrimidin-5-yl)-3-chlorophenyl)-2-hydroxy-2-(3-(trifluoromethyl)phenyl)acetamide] | 0.101 to 0.25 | 0.101 to 0.25 | 
5 | COc1cc(NC(=O)C(O)c2cccc(F)c2)ccc1-c1cn(C)c2ncnc(N)c12 (stereo not shown) [Example 104, N-(4-(4-amino-7-methyl-7H-pyrrolo[2,3-d]pyrimidin-5-yl)-3-methoxyphenyl)-2-(3-fluorophenyl)-2-hydroxyacetamide] | 0.026 to 0.05 | 0.101 to 0.25 | 
6 | Cn1cc(-c2ccc(NC(=O)C(O)c3cccc(F)c3)cc2Cl)c2c(N)ncnc21 (stereo not shown) [Example 15, N-(4-(4-amino-7-methyl-7H-pyrrolo[2,3-d]pyrimidin-5-yl)-3-chlorophenyl)-2-(3-fluorophenyl)-2-hydroxyacetamide] | 0.026 to 0.05 | 0.051 to 0.1 | 
7 | Cc1cc(NC(=O)C(N)c2ccccc2)ccc1-c1cn(C)c2ncnc(N)c12 (stereo not shown) [Example 27, 2-amino-N-(4-(4-amino-7-methyl-7H-pyrrolo[2,3-d]pyrimidin-5-yl)-3-methylphenyl)-2-phenylacetamide] | 0.101 to 0.25 |  | 0.251 to 0.5
8 | CCc1cccc(C(O)C(=O)Nc2ccc(-c3cn(C)c4nc(C)nc(N)c34)c(Cl)c2)c1 (stereo not shown) [Example 97, N-(4-(4-amino-2,7-dimethyl-7H-pyrrolo[2,3-d]pyrimidin-5-yl)-3-chlorophenyl)-2-(3-ethylphenyl)-2-hydroxyacetamide] | 0.001 to 0.025 | 0.001 to 0.025 | 
9 | Cc1c(-c2cn(C)c3ncnc(N)c23)ccc(NC(=O)C(O)c2cccc(F)c2)c1F (stereo not shown) [Example 117, N-(4-(4-amino-7-methyl-7H-pyrrolo[2,3-d]pyrimidin-5-yl)-2-fluoro-3-methylphenyl)-2-(3-fluorophenyl)-2-hydroxyacetamide] | 0.001 to 0.025 | 0.001 to 0.025 | 
10 | Cc1cc(NC(=O)C(O)c2cccc(F)c2)c(F)cc1-c1cn(C)c2ncnc(N)c12 (stereo not shown) [Example 120, N-(4-(4-amino-7-methyl-7H-pyrrolo[2,3-d]pyrimidin-5-yl)-2-fluoro-5-methylphenyl)-2-(3-fluorophenyl)-2-hydroxyacetamide] | 0.051 to 0.1 | 0.251 to 0.5 | 
11 | Cc1nc(N)c2c(-c3ccc(NC(=O)C(O)c4cc(F)cc(C(F)(F)F)c4)cc3C)cn(C)c2n1 (single isomer, unassigned) [Example 54, N-(4-(4-amino-2,7-dimethyl-7H-pyrrolo[2,3-d]pyrimidin-5-yl)-3-methylphenyl)-2-(3-fluoro-5-(trifluorophenyl)phenyl)-2-hydroxyacetamide] | 0.001 to 0.025 | 0.026 to 0.05 | 
12 | Cc1nc(N)c2c(-c3ccc(NC(=O)C(O)c4ccccc4C)cc3C)cn(C)c2n1 (stereo not shown) [Example 40, N-(4-(4-amino-2,7-dimethyl-7H-pyrrolo[2,3-d]pyrimidin-5-yl)-3-methylphenyl)-2-hydroxy-2-(o-tolyl)acetamide] | 0.026 to 0.05 |  | 0.101 to 0.25
13 | Cc1cc(F)cc(C(O)C(=O)Nc2ccc(-c3cn(C)c4nc(C)nc(N)c34)c(F)c2)c1 (stereo not shown) [Example 85, N-(4-(4-amino-2,7-dimethyl-7H-pyrrolo[2,3-d]pyrimidin-5-yl)-3-fluorophenyl)-2-(3-fluoro-5-methylphenyl)-2-hydroxyacetamide] | 0.001 to 0.025 | 0.001 to 0.025 | 
14 | Cc1ccc(CC(=O)Nc2ccc(-c3cn(C)c4ncnc(N)c34)c(C)c2)cc1 [Example 144, N-(4-(4-amino-7-methyl-7H-pyrrolo[2,3-d]pyrimidin-5-yl)-3-methylphenyl)-2-(p-tolyl)acetamide] | 0.001 to 0.025 |  | 0.101 to 0.25
15 | Cc1cccc(C(O)C(=O)Nc2ccc(-c3cn(C)c4ncnc(N)c34)c(C)c2)c1 (stereo not shown) [Example 41, N-(4-(4-amino-7-methyl-7H-pyrrolo[2,3-d]pyrimidin-5-yl)-3-methylphenyl)-2-hydroxy-2-(m-tolyl)acetamide] | 0.001 to 0.025 |  | 0.001 to 0.025

More lines, main results first:

Row | IC50 [1] [µM] | SMILES | IC50 [2] [µM] | IC50 ([2]; Homo sapiens, HEK293, 2 h) [µM]
16 | 0.001 to 0.025 | Cc1nc(N)c2c(-c3ccc(NC(=O)C(O)c4cccc(F)c4)c(F)c3C)cn(C)c2n1 (stereo not shown) [Example 12, N-(4-(4-amino-2,7-dimethyl-7H-pyrrolo[2,3-d]pyrimidin-5-yl)-2-fluoro-3-methylphenyl)-2-(3-fluorophenyl)-2-hydroxyacetamide] | 0.001 to 0.025 | 
17 | 0.001 to 0.025 | Cc1cc(NC(=O)C(O)c2cccc(C(F)(F)F)c2)ccc1-c1cn(C)c2ncnc(N)c12 (stereo not shown) [Example 47, N-(4-(4-amino-7-methyl-7H-pyrrolo[2,3-d]pyrimidin-5-yl)-3-methylphenyl)-2-hydroxy-2-(3-(trifluoromethyl)phenyl)acetamide] | 0.001 to 0.025 | 
18 | 0.001 to 0.025 | CCc1ccccc1CC(=O)Nc1ccc(-c2cn(C)c3ncnc(N)c23)c(C)c1 [Example 145, N-(4-(4-amino-7-methyl-7H-pyrrolo[2,3-d]pyrimidin-5-yl)-3-methylphenyl)-2-(2-ethylphenyl)acetamide] |  | 0.026 to 0.05
19 | 0.001 to 0.025 | Cc1cc(NC(=O)C(O)c2cccc(C(F)(F)F)c2)ccc1-c1cn(C)c2ncnc(N)c12 (stereo not shown) [Example 48, N-(4-(4-amino-7-methyl-7H-pyrrolo[2,3-d]pyrimidin-5-yl)-3-methylphenyl)-2-hydroxy-2-(3-(trifluoromethyl)phenyl)acetamide] | 0.051 to 0.1 | 
20 | 0.001 to 0.025 | Cn1cc(-c2ccc(NC(=O)C(O)c3cccc(F)c3)cc2)c2c(N)ncnc21 (stereo not shown) [Example 30, N-(4-(4-amino-7-methyl-7H-pyrrolo[2,3-d]pyrimidin-5-yl)phenyl)-2-(3-fluorophenyl)-2-hydroxyacetamide] | 0.101 to 0.25 | 
21 | 0.001 to 0.025 | Cc1nc(N)c2c(-c3ccc(NC(=O)C(O)c4cccc(C(F)(F)F)c4)nc3C)cn(C)c2n1 (stereo not shown) [Example 129, N-(5-(4-amino-2,7-dimethyl-7H-pyrrolo[2,3-d]pyrimidin-5-yl)-6-methylpyridin-2-yl)-2-hydroxy-2-(3-(trifluoromethyl)phenyl)acetamide] | 0.051 to 0.1 | 
22 | 0.001 to 0.025 | Cc1nc(N)c2c(-c3ccc(NC(=O)C(O)c4cccc(C(F)(F)F)c4)cc3Cl)cn(C)c2n1 (stereo not shown) [Example 101, N-(4-(4-amino-2,7-dimethyl-7H-pyrrolo[2,3-d]pyrimidin-5-yl)-3-chlorophenyl)-2-hydroxy-2-(3-(trifluoromethyl)phenyl)acetamide] | 0.001 to 0.025 | 
23 | 0.001 to 0.025 | Cc1cc(NC(=O)C(O)c2cccc(F)c2)c(F)cc1-c1cn(C)c2ncnc(N)c12 (stereo not shown) [Example 119, N-(4-(4-amino-7-methyl-7H-pyrrolo[2,3-d]pyrimidin-5-yl)-2-fluoro-5-methylphenyl)-2-(3-fluorophenyl)-2-hydroxyacetamide] | 0.001 to 0.025 | 
24 | 0.001 to 0.025 | Cc1cc(NC(=O)Cc2cccc(C)c2C)ccc1-c1cn(C)c2ncnc(N)c12 [Example 162, N-(4-(4-amino-7-methyl-7H-pyrrolo[2,3-d]pyrimidin-5-yl)-3-methylphenyl)-2-(2,3-dimethylphenyl)acetamide] |  | 0.051 to 0.1
25 | 0.001 to 0.025 | COC(C(=O)Nc1ccc(-c2cn(C)c3ncnc(N)c23)c(C)c1)c1ccccc1 (stereo not shown) [Example 8, N-(4-(4-amino-7-methyl-7H-pyrrolo[2,3-d]pyrimidin-5-yl)-3-methylphenyl)-2-methoxy-2-phenylacetamide] |  | 0.101 to 0.25
26 | 0.001 to 0.025 | Cn1cc(-c2ccc(NC(=O)C(O)c3cccc(F)c3)cc2F)c2c(N)ncnc21 (single isomer, unassigned) [Example 4, N-(4-(4-amino-7-methyl-7H-pyrrolo[2,3-d]pyrimidin-5-yl)-3-fluorophenyl)-2-(3-fluorophenyl)-2-hydroxyacetamide] | 0.001 to 0.025 | 
